Source: PMC8316002, “Inhibition of Escherichia coli Lipoprotein Diacylglyceryl Transferase Is Insensitive to Resistance Caused by Deletion of Braun’s Lipoprotein” (Journal of Bacteriology, 2021)
Values after ≈ are worked out from the molar mass of the structure shown. Where two headings read alike, the source gives them in different places. Where a SMILES comes first, the peptide text is derived from it. Bridges are numbered along the chain shown (N, C = ends). [ ]: non-standard residue; d: D form. Bip = N[C@@H](Cc1ccc(-c2ccccc2)cc1)C(=O)O; NMeF = CN[C@@H](Cc1ccccc1)C(=O)O

Key:
Assay in all cases: microbe, parasite or virus in culture
Assay type in all cases: cell-based, E. coli
CFT073 + EDTA = conditions: average of at least four independent experiments in duplicates
Experimental: (§1) Unless stated otherwise, E. coli cells were grown in Luria-Bertani (LB) medium (0.5% yeast extract, 1% tryptone, 0.5% NaCl) at 37°C. Where indicated, kanamycin (Kan) was added to culture media at a 50-μg/ml final concentration. MIC assays were performed based on Clinical and Laboratory Standards Institute (CLSI) guidelines. For in vitro growth curves, overnight cultures of WT CFT073, CFT073 Δlgt, and CFT073 Δlgt complemented with lgt from E. coli (lgt^Ec) or P. aeruginosa (lgt^Pa) were grown to mid-exponential phase (optical density at 600 nm [OD600] of 0.6) and then diluted to an OD600 of 0.1 to initiate growth curves. At various times, culture aliquots were diluted and plated in dilutions on LB+Kan agar, and CFU were enumerated in duplicates. Growth of MG1655 inducible deletion strains was measured by culturing in the presence of 2-fold dilutions of arabinose (starting arabinose concentrations for CFT073 and MG1655 inducible deletion strains were 4% and 0.8%, respectively). While […] was sufficient for WT growth of MG1655 Δlgt, 4% arabinose was used for CFT073 Δlgt based on comparing its growth to that of WT CFT073 as measured by CFU. OD600 growth measurements were performed using an EnVision 2101 multilabel reader plate reader (PerkinElmer) linked with Echo liquid handler (Labcyte). For time-kill experiments, bacteria were harvested in mid-exponential phase and treated with 12.5 μM G2824, 3.2 μM globomycin, and 1.6 μM vancomycin. CFU were enumerated at various times posttreatment. Bacterial culture medium containing 2% arabinose was used to induce lpp or lppΔK expression from pBad24 plasmids. Bacterial viability at different time points during the treatment was measured by enumerating CFU. Serum killing assays were carried out as previously described ([17]).

CFT073 imp4213 Δlpp = system: CFT073 imp4213 Δlpp
Experimental: as §1

CFT073 imp4213 = conditions: average of at least four independent experiments in duplicates
Experimental: as §1

CFT073 Δlpp + EDTA = system: CFT073 Δlpp + EDTA
Experimental: as §1

CFT073 Δlpp = system: CFT073 Δlpp
Experimental: as §1

CFT073 = conditions: average of at least four independent experiments in duplicates
Experimental: as §1

MG1655 + EDTA = conditions: average of at least four independent experiments in duplicates
Experimental: as §1

MG1655 Δlpp + EDTA = system: MG1655 Δlpp + EDTA
Experimental: as §1

MG1655 Δlpp = system: MG1655 Δlpp
Experimental: as §1

MG1655 = conditions: average of at least four independent experiments in duplicates
Experimental: as §1

[1] = CFT073 imp4213 Δlpp, average of at least four independent experiments in duplicates
[2] = CFT073 Δlpp + EDTA, average of at least four independent experiments in duplicates
[3] = CFT073 Δlpp, average of at least four independent experiments in duplicates
[4] = MG1655 Δlpp + EDTA, average of at least four independent experiments in duplicates
[5] = MG1655 Δlpp, average of at least four independent experiments in duplicates
[6] = Escherichia coli, read-out: MIC

Q: With `CN1C(=O)[C@H](Cc2ccc(-c3ccccc3)cc2)NC(=O)CNC(=O)[C@H](CCCNC(=N)N)NC(=O)[C@@H](Cc2ccccc2)NC(=O)CSC[C@@H](C(=O)NCC(N)=O)NC(=O)[C@H](CCCNC(=N)N)NC(=O)[C@H](CO)NC(=O)[C@H](Cc2ccc(-c3ccccc3)cc2)NC(=O)[C@@H]1Cc1ccccc1` [G9066] ({CH2CO}-[dF]RG[Bip][NMeF][Bip]SRCG-NH2; thioether N-9) as the molecule, how does the MIC (CFT073 + EDTA) read?
A: 3.1 µM (≈ 4.43 µg/mL)

Q: And the MIC (CFT073 imp4213 Δlpp; [1])?
A: 6.8 µM (≈ 9.72 µg/mL)

Q: And the MIC (CFT073 imp4213)?
A: 5.7 µM (≈ 8.14 µg/mL)

Q: What about the MIC (CFT073 Δlpp + EDTA; [2]) of the same molecule?
A: 1.6 µM

Q: And the MIC (CFT073 Δlpp; [3])?
A: 31.3 µM (≈ 44.7 µg/mL)

Q: And the MIC (CFT073)?
A: ~100 µM (≈ 143 µg/mL)

Q: What about the MIC (MG1655 + EDTA) of the same molecule?
A: 3.1 µM (≈ 4.43 µg/mL)

Q: And the MIC (MG1655 Δlpp + EDTA; [4])?
A: 3.1 µM

Q: And the MIC (MG1655 Δlpp; [5])?
A: 31.3 µM (≈ 44.7 µg/mL)

Q: What about the MIC (MG1655) of the same molecule?
A: ~100 µM (≈ 143 µg/mL)

Q: What about the MIC (MG1655; read-out: MIC) of the same molecule?
A: >100 µM

Q: How did the MIC (CFT073 + EDTA) turn out when `CN1C(=O)[C@H](Cc2ccc(-c3ccccc3)cc2)NC(=O)CNC(=O)[C@H](CC(=O)O)NC(=O)[C@@H](Cc2ccccc2)NC(=O)CSC[C@@H](C(=O)NCC(=O)N[C@@H](CCCCN)C(=O)N[C@@H](CCCCN)C(N)=O)NC(=O)[C@H](CCCNC(=N)N)NC(=O)[C@H](CO)NC(=O)[C@H](Cc2ccc(-c3ccccc3)cc2)NC(=O)[C@@H]1Cc1ccccc1` [G2824] ({CH2CO}-[dF]DG[Bip][NMeF][Bip]SRCGKK-NH2; thioether N-9) was run?
A: 3.1 µM (≈ 5.1 µg/mL)

Q: What about the MIC (CFT073 imp4213 Δlpp; [1]) of the same molecule?
A: 8.9 µM (≈ 14.6 µg/mL)

Q: What about the MIC (CFT073 imp4213) of the same molecule?
A: 8.4 µM (≈ 13.8 µg/mL)

Q: What about the MIC (CFT073 Δlpp + EDTA; [2]) of the same molecule?
A: 2.3 µM

Q: What about the MIC (CFT073 Δlpp; [3]) of the same molecule?
A: 62.5 µM (≈ 103 µg/mL)

Q: What about the MIC (CFT073) of the same molecule?
A: ~100 µM (≈ 164 µg/mL)

Q: And the MIC (CFT073; read-out: MIC)?
A: 92 µM (≈ 151 µg/mL)

Q: What about the MIC (MG1655 + EDTA) of the same molecule?
A: 3.1 µM (≈ 5.1 µg/mL)

Q: And the MIC (MG1655 Δlpp + EDTA; [4])?
A: 3.1 µM

Q: And the MIC (MG1655 Δlpp; [5])?
A: 62.5 µM (≈ 103 µg/mL)

Q: And the MIC (MG1655)?
A: ~100 µM (≈ 164 µg/mL)

Q: What about the MIC (MG1655; read-out: MIC) of the same molecule?
A: 93.8 µM (≈ 154 µg/mL)

Q: Which results are given for `CN[C@H](CC(C)C)C(=O)N[C@H]1C(=O)N[C@@H](CC(N)=O)C(=O)N[C@H]2C(=O)N[C@H]3C(=O)N[C@H](C(=O)N[C@H](C(=O)O)c4cc(O)cc(O)c4-c4cc3ccc4O)[C@H](O)c3ccc(c(Cl)c3)Oc3cc2cc(c3O[C@@H]2O[C@H](CO)[C@@H](O)[C@H](O)[C@H]2O[C@H]2C[C@](C)(N)[C@H](O)[C@H](C)O2)Oc2ccc(cc2Cl)[C@H]1O` [Vancomycin]?
A: MIC (CFT073 + EDTA; Escherichia coli): 0.8 µM (≈ 1.16 µg/mL); MIC (CFT073 imp4213 Δlpp; Escherichia coli): 0.7 µM (≈ 1.01 µg/mL); MIC (CFT073 imp4213; Escherichia coli): 0.6 µM (≈ 0.87 µg/mL); MIC (CFT073 Δlpp + EDTA; Escherichia coli): 0.8 µM (≈ 1.16 µg/mL); MIC (CFT073 Δlpp; Escherichia coli): > 100 µM; MIC (CFT073; [6]): > 100 µM; MIC (MG1655 + EDTA; Escherichia coli): 3.1 µM (≈ 4.49 µg/mL); MIC (MG1655 Δlpp + EDTA; Escherichia coli, MG1655): 0.8 µM (≈ 1.16 µg/mL); MIC (MG1655 Δlpp; Escherichia coli, MG1655): > 100 µM; MIC (MG1655; [6]): > 100 µM

Q: How did the MIC (CFT073 + EDTA) turn out when `CCCCCC[C@H]1OC(=O)CNC(=O)[C@H]([C@H](C)O)NC(=O)[C@H](CO)NC(=O)[C@H]([C@H](C)CC)NC(=O)[C@H](CC(C)C)N(C)C(=O)[C@@H]1C` [Globomycin] was run?
A: 1.1 µM (≈ 0.721 µg/mL)

Q: And the MIC (CFT073 imp4213 Δlpp; [1])?
A: 11.5 µM (≈ 7.54 µg/mL)

Q: What about the MIC (CFT073 imp4213) of the same molecule?
A: 0.5 µM (≈ 0.328 µg/mL)

Q: And the MIC (CFT073 Δlpp + EDTA; [2])?
A: 4.7 µM

Q: And the “effect of lpp deletion on growth inhibition, CFT073, in words” value (CFT073 Δlpp; CFT073 Δlpp versus WT)?
A: resistant

Q: What about the MIC (CFT073 Δlpp; [3]) of the same molecule?
A: >100 µM

Q: What about the MIC (CFT073; read-out: MIC) of the same molecule?
A: 29.2 µM (≈ 19.2 µg/mL)

Q: And the MIC (MG1655 + EDTA)?
A: 0.8 µM (≈ 0.525 µg/mL)

Q: What about the MIC (MG1655 Δlpp + EDTA; [4]) of the same molecule?
A: 12.5 µM

Q: And the “effect of lpp deletion on growth inhibition, MG1655, in words” value (MG1655 Δlpp; MG1655 Δlpp versus WT)?
A: resistant

Q: What about the MIC (MG1655 Δlpp; [5]) of the same molecule?
A: 50 µM (≈ 32.8 µg/mL)

Q: And the MIC (MG1655; read-out: MIC)?
A: 25 µM (≈ 16.4 µg/mL)
